Patent US11932606B2, “Anti-cancer/anti-fibrosis compounds” (THE REGENTS OF THE UNIVERSITY OF CALIFORNIA, priority 2017, dated 2024)
Like-named read-outs stand apart in the source and are kept apart here.

Columns and labels:
HIPK2 = HIPK2 (Homo sapiens (Human), UniProt Q9H2X6); test: HIPK2 enzymatic activity inhibition (Z'-LYTE); type: biochemical; conditions: read-out: HIPK2 IC50
Procedure: HIPK2 Enzymatic Activity Inhibition: Determination of IC50 Values for Selected Compounds
(§1) The half maximal inhibitory concentration (IC50) with respect to HIPK2 inhibition was determined for the compounds of the invention by using Z′-LYTE™ from ThermoFisher Scientific's SelectScreen™ Biochemical Kinase Profiling Service (Waltham, MA). Compounds were screened in 1% DMSO (final) in the well. For 10 point titrations, 3-fold serial dilutions were conducted from the starting concentration. The 2×HIPK2/Ser/Thr 09 mixture was prepared in 50 mM HEPES pH 7.5, 0.01% BRIJ-35, 10 mM MgCl2, 1 mM EGTA.
100 nL of 100× test compound in 100% DMSO, 2.4 uL of kinase buffer (50 mM HEPES pH 7.5, 0.01% BRIJ-35, 10 mM MgCl2, 1 mM EGTA), 5 uL of 2×HIPK2/Ser/Thr 09 mixture, and 2.5 uL of 4×ATP solution were mixed and agitated for 30 seconds. Then the Kinase Reaction was incubated at room temperature for 60 minutes. […] After 30 second of plate shake, the reaction plate was incubated for another 60 min at room temperature. Then the plate was read on a fluorescence plate reader (CLARIOstar, BMG Labtech, Germany) as plate reader and data was analyzed using XLfit from IDBS.

CSNK2A1 (CK2 alpha 1) = CSNK2A1 (CK2 alpha 1) (Homo sapiens (Human), UniProt P68400); test: CK2 alpha 1 enzymatic activity inhibition (Z'-LYTE); type: biochemical; conditions: read-out: CK2a IC50
Procedure: CK2 Alpha 1 Enzymatic Activity Inhibition: Determination of IC50 Values for Selected Compounds
The half maximal inhibitory concentration (IC50) with respect to CK2 alpha 1 inhibition was determined for the compounds of the invention by using Z′-LYTE™ from ThermoFisher Scientific's SelectScreen™ Biochemical Kinase Profiling Service (Waltham, MA). Compounds were screened in 1% DMSO (final) in the well. For 10 point titrations, 3-fold serial dilutions were conducted from the starting concentration. The 2×CSNK2A1 (CK2 alpha 1)/Ser/Thr 11 mixture is prepared in 50 mM HEPES pH 7.5, 0.01% BRIJ-35, 10 mM MgCl2, 1 mM EGTA. The black 384-well plate (Corning Cat. #4514) were used for the assay. 100 nL of 100× test compound in 100% DMSO, 2.4 uL of kinase buffer (50 mM HEPES pH 7.5, 0.01% BRIJ-35, 10 mM MgCl2, 1 mM EGTA), 5 uL of 2×CSNK2A1 (CK2 alpha 1)/Ser/Thr 11 mixture, and 2.5 uL of 4×ATP solution were mixed and agitated for 30 seconds. Then the Kinase Reaction was incubated at room temperature for 60 minutes. The final 10 uL Kinase Reaction consisted of 0.68-25.7 ng CSNK2A1 (CK2 alpha 1) and 2 μM Ser/Thr 11 in 50 mM HEPES pH 7.5, 0.01% BRIJ-35, 10 mM MgCl2, 1 mM EGTA. After the 1 hour Kinase Reaction incubation, 5 uL of a 1:16 dilution of Development Reagent B is added. After 30 second of plate shake, the reaction plate was incubated for another 60 min at room temperature. Then the plate was read on a fluorescence plate reader (CLARIOstar, BMG Labtech, Germany) and data was analyzed using XLfit from IDBS. The dose response curve was curve fit to model number 205 (sigmoidal dose-response model).

CDK8/cyclinC = CDK8/cyclinC (Homo sapiens (Human), UniProt P49336); test: CDK8 LanthaScreen Eu kinase binding assay; conditions: read-out: IC50 against CDK8
Procedure: CDK8 Enzymatic Activity Inhibition: Determination of IC50 Values for Selected Compounds
as §1, with “CDK8” for “HIPK2”, “LanthaScreen™ Eu kinase binding assay” for “Z′-LYTE™”, “concentration.” for “concentration. The 2×HIPK2/Ser/Thr 09 mixture was prepared in 50 mM HEPES pH 7.5, 0.01% BRIJ-35, 10 mM MgCl2, 1 mM EGTA.”
The 2×CDK8/cyclinC/Eu-anti-His mixture is prepared in kinase buffer A (50 mM HEPES pH 7.5, 0.01% BRIJ-35, 10 mM MgCl2, 1 mM EGTA). The Bar-coded, low volume, white 384-well plate (Greiner Cat. #784207) were used for the assay. 160 nL of 100× test compound in 100% DMSO, 3.84 uL of kinase buffer A, 8 uL of 2×CDK8/cyclinC/Eu-anti-His mixture, and 4 uL of 4× tracer 236 were mixed and shaked for 30 seconds. Then the Kinase Reaction was incubated at room temperature for 60 minutes. After the 1 hour Kinase Reaction incubation, the plate was read on a fluorescence plate reader (Infinite F500, Tecan Systems Inc, USA), and data was analyzed using XLfit from IDBS. The dose response curve was curve fit to model number 205 (sigmoidal dose-response model).

MOLM-14 = test: AML cell viability (CellTiter-Glo, day 7); type: cell-based; conditions: Homo sapiens
Procedure: (§2) MV-4-11 cell (ATCC CRL-9591), RS4;11 (ATCC CRL-1873) and TG-1 (ATCC CRL1608) were acquired from ATCC. MOLM14 (ACC777) was acquired from DSMZ. All cells were plated (96-well) in triplicate at 5000 cells per well for testing (n=3) with compound. On day 3, an equal volume for all wells was split-back with fresh media and compound. On day 7, the CellTiter-Glo Luminescent Cell Viability Assay (Promega) was performed to measure the response. For cell viability assay, two independent experiments have been done.

MV-4-11 = test: AML cell viability (CellTiter-Glo, day 7); type: cell-based; conditions: Homo sapiens
Procedure: as §2

RS4;11 = test: AML cell viability (CellTiter-Glo, day 7); type: cell-based; conditions: Homo sapiens
Procedure: as §2

TG-1 = test: AML cell viability (CellTiter-Glo, day 7); type: cell-based
Procedure: as §2

[1] = test system: MOLM-14 AML cancer cell line; test: Western blot of treated cells; type: cell-based; conditions: MOLM-14, 30 nM up to 3 μM, 24 hours and 48 hours

Chain of CDK8/cyclinC (P49336 whole entry): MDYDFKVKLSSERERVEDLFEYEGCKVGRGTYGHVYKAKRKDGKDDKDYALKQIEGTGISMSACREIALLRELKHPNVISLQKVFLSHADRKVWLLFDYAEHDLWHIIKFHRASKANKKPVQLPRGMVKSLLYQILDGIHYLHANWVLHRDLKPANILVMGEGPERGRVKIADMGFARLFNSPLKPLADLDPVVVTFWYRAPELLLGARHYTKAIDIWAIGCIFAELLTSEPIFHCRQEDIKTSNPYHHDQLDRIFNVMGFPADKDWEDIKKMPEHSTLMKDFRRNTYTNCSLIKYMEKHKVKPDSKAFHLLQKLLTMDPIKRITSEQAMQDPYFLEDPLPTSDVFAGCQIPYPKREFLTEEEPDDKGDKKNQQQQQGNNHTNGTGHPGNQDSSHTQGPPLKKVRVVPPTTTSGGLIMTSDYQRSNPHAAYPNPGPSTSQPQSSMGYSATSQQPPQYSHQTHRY
Chain of CDK8/cyclinC (P24863 whole entry partner): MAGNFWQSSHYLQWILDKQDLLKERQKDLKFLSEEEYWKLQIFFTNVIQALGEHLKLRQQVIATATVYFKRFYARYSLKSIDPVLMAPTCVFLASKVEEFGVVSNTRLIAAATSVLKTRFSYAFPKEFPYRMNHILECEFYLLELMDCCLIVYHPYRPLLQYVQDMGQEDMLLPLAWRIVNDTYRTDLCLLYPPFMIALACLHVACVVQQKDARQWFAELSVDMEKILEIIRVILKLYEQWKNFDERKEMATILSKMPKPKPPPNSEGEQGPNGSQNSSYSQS
Chain of HIPK2 (Q9H2X6 whole entry): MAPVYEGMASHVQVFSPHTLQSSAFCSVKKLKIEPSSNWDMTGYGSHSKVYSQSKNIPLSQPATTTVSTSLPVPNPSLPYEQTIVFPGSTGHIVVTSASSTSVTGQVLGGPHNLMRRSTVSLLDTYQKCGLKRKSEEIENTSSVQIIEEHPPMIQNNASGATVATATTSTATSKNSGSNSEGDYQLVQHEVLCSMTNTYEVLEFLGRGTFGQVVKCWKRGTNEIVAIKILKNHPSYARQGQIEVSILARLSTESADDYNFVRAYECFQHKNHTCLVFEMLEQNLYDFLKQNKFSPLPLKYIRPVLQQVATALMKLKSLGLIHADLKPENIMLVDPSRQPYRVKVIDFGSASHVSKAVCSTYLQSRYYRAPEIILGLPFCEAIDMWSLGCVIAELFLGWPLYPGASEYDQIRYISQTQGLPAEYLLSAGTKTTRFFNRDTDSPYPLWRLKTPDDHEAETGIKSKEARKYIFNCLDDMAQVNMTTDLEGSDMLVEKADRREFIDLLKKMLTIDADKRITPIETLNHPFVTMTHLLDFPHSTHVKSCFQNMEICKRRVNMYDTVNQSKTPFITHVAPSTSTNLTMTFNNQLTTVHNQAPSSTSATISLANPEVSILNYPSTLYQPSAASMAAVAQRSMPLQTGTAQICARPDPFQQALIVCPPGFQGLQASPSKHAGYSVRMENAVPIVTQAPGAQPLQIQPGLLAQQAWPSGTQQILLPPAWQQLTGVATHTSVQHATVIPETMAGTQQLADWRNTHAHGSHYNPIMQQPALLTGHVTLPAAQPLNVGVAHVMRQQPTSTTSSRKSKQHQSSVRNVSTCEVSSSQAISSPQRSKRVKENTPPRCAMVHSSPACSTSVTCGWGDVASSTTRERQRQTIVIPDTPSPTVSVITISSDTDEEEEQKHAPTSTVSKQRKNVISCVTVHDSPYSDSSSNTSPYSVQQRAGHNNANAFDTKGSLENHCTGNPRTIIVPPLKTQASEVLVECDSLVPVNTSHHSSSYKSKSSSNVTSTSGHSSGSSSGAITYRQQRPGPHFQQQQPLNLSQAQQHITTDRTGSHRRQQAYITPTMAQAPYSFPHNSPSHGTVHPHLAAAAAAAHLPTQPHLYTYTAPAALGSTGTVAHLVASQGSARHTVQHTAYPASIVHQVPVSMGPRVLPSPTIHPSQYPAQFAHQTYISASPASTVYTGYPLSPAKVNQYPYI
Chain of CSNK2A1 (CK2 alpha 1) (P68400 whole entry): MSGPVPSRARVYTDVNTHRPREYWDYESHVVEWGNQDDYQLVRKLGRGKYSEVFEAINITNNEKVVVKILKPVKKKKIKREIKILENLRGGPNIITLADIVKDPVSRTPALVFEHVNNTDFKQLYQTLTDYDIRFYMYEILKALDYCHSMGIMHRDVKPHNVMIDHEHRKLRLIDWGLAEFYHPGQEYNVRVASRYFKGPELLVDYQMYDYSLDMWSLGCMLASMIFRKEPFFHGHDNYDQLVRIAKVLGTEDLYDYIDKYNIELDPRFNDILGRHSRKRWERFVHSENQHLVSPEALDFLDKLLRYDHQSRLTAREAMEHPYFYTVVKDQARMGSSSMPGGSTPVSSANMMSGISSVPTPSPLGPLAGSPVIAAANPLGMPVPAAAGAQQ

Nc1nccc2c(Br)cc3cc(C(=O)[O-])ccc3c12.[Na+] [Compound 29, Sodium 1-amino-5-bromobenzo[h]isoquinoline-8-carboxylate]
< 1 µM: IC50 (MOLM-14; 168 h, MOLM-14, day 7, read-out: Cell viability IC50) | IC50 (MOLM-14; MOLM-14, text statement, read-out: potency in cell viability assay) | IC50 (MV-4-11; MV4-11, 168 h, MV-4-11, day 7, read-out: Cell viability IC50) | IC50 (MV-4-11; MV4-11, MV-4-11, text statement, read-out: potency in cell viability assay) | IC50 (RS4;11; 168 h, RS4;11, day 7, read-out: Cell viability IC50) | IC50 (RS4;11; RS4;11, text statement, read-out: potency in cell viability assay) | IC50 (TG-1; TG1, 168 h, TG-1, day 7, read-out: Cell viability IC50) | IC50 (TG-1; TG1, TG-1, text statement, read-out: potency in cell viability assay)
down regulate: level of p-STAT1(Ser727), p-STAT3(Tyr705), p-STAT5(Ser726) and YAP [1]
< 0.3 µM: IC50 (HIPK2) | IC50 (CSNK2A1 (CK2 alpha 1)) | IC50 (CDK8/cyclinC)
